The supplement of paper PMC11061612

Assays:
[1] = compound: CC1(C)CCC(CN2CCN(c3ccc(C(=O)NS(=O)(=O)c4ccc(NCC5CCOCC5)c([N+](=O)[O-])c4)c(Oc4cnc5[nH]ccc5c4)c3)CC2)=C(c2ccc(Cl)cc2)C1 [Venetoclax]; details: max 1 µM
Method in brief: (§1)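 Cancer cell lines were seeded into 1536-well plates in 7.5 μl medium (DMEM/F12 or RPMI, 10% FBS), held 24 hours at 37°C and 5% CO2, and dosed for 72 hours with final DMSO typically 0.2%. Luminescence from CellTiter-Glo 2.0, scaled between blank-well and DMSO-well means, served as viability. The single-agent IC50 was obtained from dose-response fits with a non-linear mixed effects model, each fit being a two-parameter logistic curve.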

[2] = compound: COc1nnc2ccc(N3CCC(c4ccc(OCCN5CCN(C)C(=O)[C@H]5C)cc4)CC3)nn12 [AZD5153]; details: max 1 µM
Method in brief: as §1

[3] = compound: C[C@@H](Nc1cc(F)cc(F)c1)c1cc(C(=O)N(C)C)cc2c(=O)cc(N3CCOCC3)oc12 [AZD8186]; details: max 10 µM
Method in brief: as §1

[4] = compound: Cc1c2c(nn1C)CSCc1cc(n(C)n1)CSc1cc(c3ccccc3c1)OCCCc1c(C(=O)O)n(C)c3c-2c(Cl)ccc13 [AZD5991]; details: max 1 µM
Method in brief: as §1

[5] = compound: CN(CC[C@H](CSC1=CC=CC=C1)NC2=C(C=C(C=C2)S(=O)(=O)NC(=O)C3=CC=C(C=C3)N4CCC(CC4)[C@H](C5=CC=CC=C5C6=CC=C(C=C6)Cl)O)S(=O)(=O)C(F)(F)F)CCO [AZD4320]; details: max 1 µM
Method in brief: as §1

[6] = compound: Cc1nc(-c2cn3c(n2)-c2ccc(-c4cnn(C(C)(C)C(N)=O)c4)cc2OCC3)n(C(C)C)n1 [Taselisib]; details: max 10 µM
Method in brief: as §1

[7] = compound: O=C(Nc1ccc2[nH]nc(-c3ccncc3)c2c1)[C@@H]1CCN(CC(=O)N2CCN(c3ccc(-c4ncccn4)cc3)CC2)C1; details: max 5 µM
Method in brief: as §1

[8] = compound: C[C@@H](Oc1cc(-c2cnn(C3CCNCC3)c2)cnc1N)c1c(Cl)ccc(F)c1Cl [Crizotinib]; details: max 10 µM
Method in brief: as §1

[9] = compound: Cn1cnc2c(F)c(Nc3ccc(Br)cc3Cl)c(C(=O)NOCCO)cc21 [Selumetinib]; details: max 10 µM
Method in brief: as §1

[10] = compound: C=CCn1c(=O)c2cnc(Nc3ccc(N4CCN(C)CC4)cc3)nc2n1-c1cccc(C(C)(C)O)n1 [AZD1775]; details: max 3 µM
Method in brief: as §1

[11] = compound: C[C@@H]1COCCN1C2=NC(=NC(=C2)C3(CC3)[S@](=N)(=O)C)C4=C5C=CNC5=NC=C4 [AZD6738]; details: max 10 µM
Method in brief: as §1

[12] = compound: CC(=O)Nc1cccc(-n2c(=O)n(C3CC3)c(=O)c3c(Nc4ccc(I)cc4F)n(C)c(=O)c(C)c32)c1 [Trametinib]; details: max 1 µM
Method in brief: as §1

[13] = compound: O=c1[nH]cc(F)c(=O)[nH]1 [5-Fluorouracil]; details: max 20 µM
Method in brief: as §1

[14] = compound: COc1cccc(OCCCN)c1-c1cc(Nc2cnc(C#N)cn2)n[nH]1 [Prexasertib]; details: max 1 µM
Method in brief: as §1

[15] = compound: CN(C)CCCOc1ccc(-c2ccc3ncc4c(c3c2)n(C2CCOCC2)c(=O)n4C)cn1 [AZD0156]; details: max 3 µM
Method in brief: as §1

[16] = compound: NC1(c2ccc(-c3nc4ccn5c(=O)[nH]nc5c4cc3-c3ccccc3)cc2)CCC1 [MK-2206]; details: max 10 µM
Method in brief: as §1

[17] = compound: CCc1c2c(nc3ccc(O)cc13)-c1cc3c(c(=O)n1C2)COC(=O)[C@]3(O)CC [SN-38]; details: max 0.3 µM
Method in brief: as §1

[18] = compound: COc1cc(Nc2ncc3c(n2)-c2ccc(Cl)cc2C(c2c(F)cccc2OC)=NC3)ccc1C(=O)O [Alisertib]; details: max 10 µM
Method in brief: as §1

[19] = compound: Cc1cc2ncnn2cc1Nc1ncc2c(n1)n(C1CCOCC1)c(=O)n2C [AZD7648]; details: max 10 µM
Method in brief: as §1

[20] = compound: COc1cc([C@@H]2c3cc4c(cc3[C@@H](O[C@@H]3O[C@@H]5CO[C@@H](C)O[C@H]5[C@H](O)[C@H]3O)[C@H]3COC(=O)[C@H]23)OCO4)cc(OC)c1O [Etoposide]; details: max 10 µM
Method in brief: as §1

[21] = compound: COc1cccc2c1C(=O)c1c(O)c3c(c(O)c1C2=O)C[C@@](O)(C(=O)CO)C[C@@H]3O[C@H]1C[C@H](N)[C@H](O)[C@H](C)O1 [Doxorubicin]; details: max 1 µM
Method in brief: as §1

[22] = compound: CC1=CN2[C@@H](C1)C=NC3=CC(=C(C=C3C2=O)OC)OCCCCCOC4=C(C=C5C(=C4)N=C[C@@H]6CC(=CN6C5=O)C)OC [SG3199]; details: max 0.001 µM
Method in brief: as §1

[23] = compound: O=C(c1cc(Cc2n[nH]c(=O)c3ccccc23)ccc1F)N1CCN(C(=O)C2CC2)CC1 [Olaparib]; details: max 10 µM
Method in brief: as §1

[24] = compound: CC(C)n1c(=O)n(C)c2cnc3cc(F)c(-c4ccc(OCCCN5CCCCC5)nc4)cc3c21 [AZD1390]; details: max 0.3 µM
Method in brief: as §1

[25] = compound: COc1cc2ncnc(Nc3ccc(F)c(Cl)c3)c2cc1OCCCN1CCOCC1 [Gefitinib]; details: max 10 µM
Method in brief: as §1

[26] = compound: C1CN(CCC1(C(=O)N[C@@H](CCO)C2=CC=C(C=C2)Cl)N)C3=NC=NC4=C3C=CN4 [AZD5363]; details: max 10 µM
Method in brief: as §1

[27] = compound: CC(=O)O[C@H]1C(=O)[C@@]2(C)[C@H]([C@H](OC(=O)c3ccccc3)[C@]3(O)C[C@H](OC(=O)[C@H](O)[C@@H](NC(=O)c4ccccc4)c4ccccc4)C(C)=C1C3(C)C)[C@]1(OC(C)=O)CO[C@@H]1C[C@@H]2O [Paclitaxel]; details: max 3 µM
Method in brief: as §1

[28] = compound: C1CC(C1)(C(=O)[O-])C(=O)[O-].N.N.[Pt+2] [Carboplatin]; details: max 10 µM
Method in brief: as §1

[29] = compound: C[C@@H](c1ccc2nccn2c1)n1nnc2ncc(-c3cnn(C)c3)nc21 [Savolitinib]; details: max 1 µM
Method in brief: as §1

[30] = compound: CS(=O)(=O)CCNCc1ccc(-c2ccc3ncnc(Nc4ccc(OCc5cccc(F)c5)c(Cl)c4)c3c2)o1 [Lapatinib]; details: max 10 µM
Method in brief: as §1

[31] = compound: Nc1ccn([C@@H]2O[C@H](CO)[C@@H](O)C2(F)F)c(=O)n1 [Gemcitabine]; details: max 0.3 µM
Method in brief: as §1

[32] = compound: CC1=C(C(=CC=C1)Cl)NC(=O)C2=CN=C(S2)NC3=CC(=NC(=N3)C)N4CCN(CC4)CCO [Dasatinib]; details: max 2 µM
Method in brief: as §1

[33] = compound: CC(=O)c1c(C)c2cnc(Nc3ccc(N4CCNCC4)cn3)nc2n(C2CCCC2)c1=O [Palbociclib]; details: max 10 µM
Method in brief: as §1

[34] = compound: N#Cc1cnc(Nc2cc(NC[C@H]3CNCCO3)c(C(F)(F)F)cn2)cn1 [SRA737]; details: max 10 µM
Method in brief: as §1

[35] = compound: CCN(CCO)CCCOc1ccc2c(Nc3cc(CC(=O)Nc4cccc(F)c4)[nH]n3)ncnc2c1 [AZD2811]; details: max 1 µM
Method in brief: as §1

Cell Line | IC50, cell viability 72 h [1] | IC50, cell viability 72 h [2] | IC50, cell viability 72 h [3] | IC50, cell viability 72 h [4] | IC50, cell viability 72 h [5] | IC50, cell viability 72 h [6] | IC50, cell viability 72 h [7] | IC50, cell viability 72 h [8] | IC50, cell viability 72 h [9] | IC50, cell viability 72 h [10] | IC50, cell viability 72 h [11] | IC50, cell viability 72 h [12] | IC50, cell viability 72 h [13] | IC50, cell viability 72 h [14] | IC50, cell viability 72 h [15] | IC50, cell viability 72 h [16] | IC50, cell viability 72 h [17] | IC50, cell viability 72 h [18] | IC50, cell viability 72 h [19] | IC50, cell viability 72 h [20] | IC50, cell viability 72 h [21] | IC50, cell viability 72 h [22] | IC50, cell viability 72 h [23] | IC50, cell viability 72 h [24] | IC50, cell viability 72 h [25] | IC50, cell viability 72 h [26] | IC50, cell viability 72 h [27] | IC50, cell viability 72 h [28] | IC50, cell viability 72 h [29] | IC50, cell viability 72 h [30] | IC50, cell viability 72 h [31] | IC50, cell viability 72 h [32] | IC50, cell viability 72 h [33] | IC50, cell viability 72 h [34] | IC50, cell viability 72 h [35]
RT-112 (Bladder Carcinoma) | > 1000 nM | > 1000 nM | > 10000 nM | 413 nM | > 1000 nM | 2950 nM | 3600 nM | > 10000 nM | > 10000 nM | 549 nM | 4410 nM | 305 nM | > 20000 nM | 31.2 nM | > 3000 nM | > 10000 nM | 255 nM | 2220 nM | > 10000 nM | > 10000 nM | > 1000 nM | > 1 nM | > 10000 nM | > 300 nM | > 10000 nM | > 10000 nM | 9.52 nM | > 10000 nM | > 1000 nM | > 10000 nM | 291 nM | > 2000 nM | > 10000 nM | > 10000 nM | > 1000 nM
LU-139 (Small Cell Lung Carcinoma) | > 1000 nM | 103 nM | > 10000 nM | > 1000 nM | 47.4 nM | > 10000 nM | > 5000 nM | 9530 nM | > 10000 nM | 1210 nM | > 10000 nM | > 1000 nM | > 20000 nM | 413 nM | > 3000 nM | > 10000 nM | 39.2 nM | 5740 nM | > 10000 nM | 2430 nM | 513 nM | > 1 nM | > 10000 nM | > 300 nM | > 10000 nM | > 10000 nM | 124 nM | > 10000 nM | > 1000 nM | > 10000 nM | 29.5 nM | > 2000 nM | > 10000 nM | > 10000 nM | > 1000 nM
CAPAN-1 (Pancreatic Carcinoma) | > 1000 nM | > 1000 nM | > 10000 nM | > 1000 nM | > 1000 nM | > 10000 nM | 2790 nM | > 10000 nM | > 10000 nM | 1230 nM | > 10000 nM | 349 nM | > 20000 nM | 485 nM | > 3000 nM | > 10000 nM | 38.8 nM | > 10000 nM | > 10000 nM | > 10000 nM | > 1000 nM | > 1 nM | > 10000 nM | > 300 nM | > 10000 nM | > 10000 nM | 188 nM | > 10000 nM | > 1000 nM | > 10000 nM | 130 nM | > 2000 nM | > 10000 nM | > 10000 nM | > 1000 nM
